According to US11584747B2, “Substituted pyridopyrimidinonyl compounds useful as T cell activators” (BRISTOL-MYERS SQUIBB COMPANY, priority 2019, dated 2023):
Where two headings read alike, the source gives them in different places.

How the values were obtained:
human DGKα [1] = biological target: T1, human DGKα (Homo sapiens (Human), UniProt P23743); assay: DGKα LIPGLO assay (extruded liposome substrate, ADP-Glo luminescence); type: biochemical; settings: liposome assay; read-out: DGK alpha LIPGLO IC50
human DGKζ = human DGKζ (Homo sapiens (Human), UniProt Q13574); assay: DGKζ LIPGLO assay (extruded liposome substrate, ADP-Glo luminescence); type: biochemical
human DGKα [2] = biological target: T1, human DGKα; assay: DGKα ADPGLO assay (detergent/lipid micelle substrate); type: biochemical
Experimental: DGK Alpha ADPGLO (Truncated) IC50 (uM)
The detergent/lipid micelle was prepared by combining 15 g phosphatidylserine (Avanti 840035P) and 1 g diacylglycerol (8008110) and dissolving into 150 mL chloroform in a 2 L round bottom flask. Chloroform was removed under high vacuum by rotary evaporation. […] The lipid/detergent solution was split into 5 mL aliquots and stored at −80° C.

[3] = tested on: human venous whole blood (IFN-γ); assay: Human whole blood IFN-γ assay; type: cell-based
Experimental: Human venous whole blood (22.5 μL per well), obtained from healthy donors, was pre-treated with compounds for one hour at 37° C. in a humidified 95% air/5% CO2 incubator. The blood was stimulated with 2.5 μL anti-human CD3 and anti-CD28 mAb at a final concentration of 1 μg/mL each for 24 hours at 37° C. IFN-γ in the supernatants was measured using AlphLISA kit (Cat #AL217).

[4] = liposome assay, read-out: DGK zeta LIPGLO IC50
[5] = liposome (LIPGLO) assay, read-out: DGK zeta (liposome assay) IC50
[6] = ADPGLO assay, read-out: DGK alpha ADPGLO IC50
[7] = human whole blood, anti-CD3 plus anti-CD28 stimulation, 24 hours, read-out: IFN-γ Whole Blood EC50
[8] = truncated DGK alpha, read-out: DGK alpha ADPGLO (Truncated) IC50
[9] = whole blood, normalized to 3 μM reference compound as 100% activation, read-out: IFN-γ Whole Blood Normalized EC50
[10] = Homo sapiens, whole blood, normalized to 3 μM reference compound as 100% activation, read-out: IFN-γ Whole Blood Normalized EC50

human DGKζ, sequence (Q13574 other isoform, or with tags, fused parts or gaps): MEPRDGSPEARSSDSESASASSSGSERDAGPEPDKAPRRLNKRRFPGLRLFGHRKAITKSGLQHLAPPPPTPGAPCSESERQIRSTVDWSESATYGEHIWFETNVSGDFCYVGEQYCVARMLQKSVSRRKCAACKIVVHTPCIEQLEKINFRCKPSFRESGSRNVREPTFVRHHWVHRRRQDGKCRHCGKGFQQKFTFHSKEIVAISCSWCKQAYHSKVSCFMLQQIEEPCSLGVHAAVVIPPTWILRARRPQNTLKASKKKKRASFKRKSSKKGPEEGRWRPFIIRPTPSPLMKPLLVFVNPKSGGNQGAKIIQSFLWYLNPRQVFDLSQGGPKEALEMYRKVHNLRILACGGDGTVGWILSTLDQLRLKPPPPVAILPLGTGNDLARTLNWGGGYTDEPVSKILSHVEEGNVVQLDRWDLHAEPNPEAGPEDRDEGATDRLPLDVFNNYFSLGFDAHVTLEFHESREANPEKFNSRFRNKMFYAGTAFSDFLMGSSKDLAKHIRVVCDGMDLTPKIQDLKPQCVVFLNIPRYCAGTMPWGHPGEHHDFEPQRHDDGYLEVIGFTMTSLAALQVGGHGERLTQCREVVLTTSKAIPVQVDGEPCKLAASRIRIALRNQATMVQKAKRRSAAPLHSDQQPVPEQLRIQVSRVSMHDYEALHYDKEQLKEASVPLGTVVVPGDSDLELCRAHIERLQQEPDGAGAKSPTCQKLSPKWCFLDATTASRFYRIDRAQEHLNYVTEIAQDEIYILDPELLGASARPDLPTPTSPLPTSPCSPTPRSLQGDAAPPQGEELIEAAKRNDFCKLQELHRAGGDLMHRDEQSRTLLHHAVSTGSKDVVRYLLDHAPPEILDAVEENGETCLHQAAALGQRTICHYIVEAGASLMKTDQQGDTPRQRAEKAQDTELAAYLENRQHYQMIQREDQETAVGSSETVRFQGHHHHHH
T1 sequence (P23743 whole entry, looked up): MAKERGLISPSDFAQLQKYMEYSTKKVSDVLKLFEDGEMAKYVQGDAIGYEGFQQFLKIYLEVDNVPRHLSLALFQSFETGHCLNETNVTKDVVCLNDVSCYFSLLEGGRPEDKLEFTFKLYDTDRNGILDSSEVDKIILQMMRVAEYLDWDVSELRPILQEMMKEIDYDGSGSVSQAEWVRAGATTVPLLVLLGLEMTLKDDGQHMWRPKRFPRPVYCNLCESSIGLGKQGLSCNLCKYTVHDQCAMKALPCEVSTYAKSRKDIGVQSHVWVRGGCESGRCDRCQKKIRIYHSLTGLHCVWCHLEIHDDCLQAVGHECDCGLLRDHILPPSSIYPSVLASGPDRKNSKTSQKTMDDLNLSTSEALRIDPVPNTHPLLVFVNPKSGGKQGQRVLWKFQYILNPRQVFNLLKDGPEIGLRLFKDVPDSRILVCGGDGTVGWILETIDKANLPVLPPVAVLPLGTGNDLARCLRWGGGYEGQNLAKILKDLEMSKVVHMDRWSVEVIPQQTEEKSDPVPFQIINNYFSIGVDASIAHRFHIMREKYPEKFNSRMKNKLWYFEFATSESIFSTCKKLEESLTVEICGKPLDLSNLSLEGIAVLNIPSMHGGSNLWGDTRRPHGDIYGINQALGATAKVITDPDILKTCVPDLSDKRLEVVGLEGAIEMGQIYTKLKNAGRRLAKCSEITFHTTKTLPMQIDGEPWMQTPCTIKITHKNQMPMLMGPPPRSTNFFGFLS

| SMILES | IC50 (human DGKζ; [4]) | IC50 (human DGKα [2]; [8]) | EC50 [3, 9] | also measured |
| --- | --- | --- | --- | --- |
| CC(c1cc(F)c(F)c(F)c1)N1C[C@H](C)N(c2nc(=O)n(C)c3ccc(C#N)nc23)C[C@H]1C (single isomer, unassigned) [Example 138] |  |  |  | IC50 (human DGKα [1]): 2410 nM |
| CC[C@H]1CN(C(c2ccc(F)cc2)c2cccc(C(F)(F)F)n2)[C@H](C)CN1c1nc(=O)n(C)c2ccc(C#N)nc12 (stereo partly drawn) [Example 120, 4-((2S,5R)-2-ethyl-4-((4-fluorophenyl)(6-(trifluoromethyl)pyridin-2-yl)methyl)-5-methylpiperazin-1-yl)-1-methyl-2-oxo-1,2-dihydropyrido[3,2-d]pyrimidine-6-carbonitrile] | 740 nM |  |  | IC50 (human DGKα [1]): 1710 nM |
| CC[C@@H]1CN(c2nc(=O)n(C)c3ccc(C#N)nc23)[C@@H](C)CN1C(c1ccc(F)cc1)c1nc(C2CC2)cs1 (single isomer, unassigned) [Example 50] | 37 nM |  |  | IC50 (human DGKα [1]): 110 nM |
| CC[C@H]1CN(C(c2ccc(F)cc2)c2cccc(C(F)(F)F)n2)[C@H](C)CN1c1nc(=O)n(C)c2ccc(C#N)nc12 (stereo partly drawn) [Example 121, 4-((2S,5R)-2-ethyl-4-((4-fluorophenyl)(6-(trifluoromethyl)pyridin-2-yl)methyl)-5-methylpiperazin-1-yl)-1-methyl-2-oxo-1,2-dihydropyrido[3,2-d]pyrimidine-6-carbonitrile] | 1650 nM |  |  | IC50 (human DGKα [1]): 1940 nM |
| CC[C@@H]1CN(c2nc(=O)n(C)c3ccc(C#N)nc23)[C@@H](C)CN1C(C)c1ccc(OCC2CC2)cc1 (single isomer, unassigned) [Example 67] | 33 nM |  |  | IC50 (human DGKα [1]): 210 nM |
| CC[C@H]1CN(C(C)c2ccc(OC(F)(F)F)cc2)[C@H](CC)CN1c1nc(=O)n(C)c2ccc(C#N)nc12 (single isomer, unassigned) [Example 9] | 48 nM |  |  | IC50 (human DGKα [1]): 7 nM |
| CC[C@H]1CN(C(C)c2nc(C3CC3)no2)[C@H](CC)CN1c1nc(=O)n(C)c2ccc(C#N)nc12 (stereo partly drawn) [Example 362, 4-((2S,5R)-4-(1-(3-cyclopropyl-1,2,4-oxadiazol-5-yl)ethyl)-2,5-diethylpiperazin-1-yl)-1-methyl-2-oxo-1,2-dihydropyrido[3,2-d]pyrimidine-6-carbonitrile] |  |  |  | IC50 (human DGKζ; [5]): 590 nM; IC50 (human DGKα [2]; [6]): 61 nM; EC50 [3, 7]: 3090 nM |
| CC[C@H]1CN(C(C)c2nc(C3CC3)no2)[C@H](CC)CN1c1nc(=O)n(C)c2ccc(C#N)nc12 (stereo partly drawn) [Example 361, 4-((2S,5R)-4-(1-(3-cyclopropyl-1,2,4-oxadiazol-5-yl)ethyl)-2,5-diethylpiperazin-1-yl)-1-methyl-2-oxo-1,2-dihydropyrido[3,2-d]pyrimidine-6-carbonitrile] |  |  |  | IC50 (human DGKζ; [5]): 22 nM; IC50 (human DGKα [2]; [6]): 5 nM; EC50 [3, 7]: 260 nM |
| CC[C@H]1CN(C(C)c2ccc3oc(=O)n(C)c3c2)[C@H](CC)CN1c1nc(=O)n(C)c2ccc(C#N)nc12 (stereo partly drawn) [Example 203, 4-((2S,5R)-2,5-diethyl-4-(1-(3-methyl-2-oxo-2,3-dihydrobenzo[d]oxazol-5-yl)ethyl)piperazin-1-yl)-1-methyl-2-oxo-1,2-dihydropyrido[3,2-d]pyrimidine-6-carbonitrile] | 2710 nM | 780 nM | 2210 nM |  |
| CCC(c1ccc(Cl)cc1F)N1C[C@H](CC)N(c2nc(=O)n(C)c3ccc(C#N)nc23)C[C@H]1CC (stereo partly drawn) [Example 238, 4-((2S,5R)-4-(1-(4-chloro-2-fluorophenyl)propyl)-2,5-diethylpiperazin-1-yl)-1-methyl-2-oxo-1,2-dihydropyrido[3,2-d]pyrimidine-6-carbonitrile] | 110 nM | 15 nM | 23 nM |  |
| CC[C@H]1CN(C(C)c2ccc(C)nc2)[C@H](CC)CN1c1nc(=O)n(C)c2ccc(C#N)nc12 (stereo partly drawn) [Example 228, 4-((2S,5R)-2,5-diethyl-4-(1-(6-methylpyridin-3-yl)ethyl)piperazin-1-yl)-1-methyl-2-oxo-1,2-dihydropyrido[3,2-d]pyrimidine-6-carbonitrile] | 300 nM | 190 nM | 600 nM |  |
| CC(c1ccc(CN2C[C@@H]3C[C@H]2CO3)cc1)N1C[C@H](C)N(c2nc(=O)n(C)c3ccc(C#N)nc23)C[C@H]1C (stereo partly drawn) [Example 387, 4-((2S,5R)-4-(1-(4-(((1S,4S)-2-oxa-5-azabicyclo[2.2.1]heptan-5-yl)methyl)phenyl)ethyl)-2,5-dimethylpiperazin-1-yl)-1-methyl-2-oxo-1,2-dihydropyrido[3,2-d]pyrimidine-6-carbonitrile] |  |  |  | IC50 (human DGKζ; [5]): 6070 nM; IC50 (human DGKα [2]; [6]): 1930 nM; EC50 [3, 7]: 770 nM |
| CCC(c1ccc(C(F)(F)F)nc1)N1C[C@H](CC)N(c2nc(=O)n(C)c3ccc(C#N)nc23)C[C@H]1CC (stereo partly drawn) [Example 225, 4-((2S,5R)-2,5-diethyl-4-(1-(6-(trifluoromethyl)pyridin-3-yl)propyl)piperazin-1-yl)-1-methyl-2-oxo-1,2-dihydropyrido[3,2-d]pyrimidine-6-carbonitrile] | 4130 nM | 460 nM | 610 nM |  |
| CC[C@H]1CN(C(C)c2ccc(C(=O)OC)cc2)[C@H](CC)CN1c1nc(=O)n(C)c2ccc(C#N)nc12 (stereo partly drawn) [Example 266, methyl 4-(1-((2R,5S)-4-(6-cyano-1-methyl-2-oxo-1,2-dihydropyrido[3,2-d]pyrimidin-4-yl)-2,5-diethylpiperazin-1-yl)ethyl)benzoate] | 28 nM | 83 nM | 180 nM |  |
| CC[C@@H]1CN(c2nc(=O)n(C)c3ccc(C#N)nc23)[C@@H](C)CN1C(c1ccc(F)cc1)c1csc(C(F)(F)F)n1 (stereo partly drawn) [Example 297, 4-((2S,5R)-5-ethyl-4-((4-fluorophenyl)(2-(trifluoromethyl)thiazol-4-yl)methyl)-2-methylpiperazin-1-yl)-1-methyl-2-oxo-1,2-dihydropyrido[3,2-d]pyrimidine-6-carbonitrile] | 110 nM | 110 nM | 53 nM |  |
| CC[C@@H]1CN(c2nc(=O)n(C)c3ccc(C#N)nc23)[C@@H](CC)CN1Cc1ccc(C(F)(F)F)cc1F [Example 204, 4-((2S,5R)-2,5-diethyl-4-(2-fluoro-4-(trifluoromethyl)benzyl)piperazin-1-yl)-1-methyl-2-oxo-1,2-dihydropyrido[3,2-d]pyrimidine-6-carbonitrile] | 1410 nM | 120 nM |  | EC50 [3, 10]: 410 nM |
| CCC(c1ccc(OCC2CC2)cc1)N1C[C@H](CC)N(c2nc(=O)n(C)c3ccc(C#N)nc23)C[C@H]1CC (stereo partly drawn) [Example 216, 4-((2S,5R)-4-(1-(4-(cyclopropylmethoxy)phenyl)propyl)-2,5-diethylpiperazin-1-yl)-1-methyl-2-oxo-1,2-dihydropyrido[3,2-d]pyrimidine-6-carbonitrile] | 88 nM | 87 nM | 12 nM |  |
| CC[C@H]1CN(C(C)c2ccc(C3CC3)nc2)[C@H](CC)CN1c1nc(=O)n(C)c2ccc(C#N)nc12 (stereo partly drawn) [Example 192, 4-((2 S,5R)-4-(1-(6-cyclopropylpyridin-3-yl)ethyl)-2,5-diethylpiperazin-1-yl)-1-methyl-2-oxo-1,2-dihydropyrido[3,2-d]pyrimidine-6-carbonitrile] | 52 nM | 61 nM | 110 nM |  |
| CC[C@H]1CN(C(C)c2ccc(N3CCCC3=O)cc2)[C@H](CC)CN1c1nc(=O)n(C)c2ccc(C#N)nc12 (stereo partly drawn) [Example 230, 4-((2S,5R)-2,5-diethyl-4-(1-(4-(2-oxopyrrolidin-1-yl)phenyl)ethyl)piperazin-1-yl)-1-methyl-2-oxo-1,2-dihydropyrido[3,2-d]pyrimidine-6-carbonitrile] | 130 nM | 42 nM | 1290 nM |  |
| CC[C@@H]1CN(c2nc(=O)n(C)c3ccc(C#N)nc23)[C@@H](C)CN1C(c1ccc(F)cc1)c1csc(C(F)(F)F)n1 (stereo partly drawn) [Example 296, 4-((2S,5R)-5-ethyl-4-((4-fluorophenyl)(2-(trifluoromethyl)thiazol-4-yl)methyl)-2-methylpiperazin-1-yl)-1-methyl-2-oxo-1,2-dihydropyrido[3,2-d]pyrimidine-6-carbonitrile] | 140 nM | 460 nM |  | EC50 [3, 10]: 36 nM |
| CC[C@H]1CN(C(C)c2ccc(CN3CCN(C(C)=O)CC3)cc2)[C@H](CC)CN1c1nc(=O)n(C)c2ccc(C#N)nc12 (stereo partly drawn) [Example 284, 4-((2S,5R)-4-(1-(4-((4-acetylpiperazin-1-yl)methyl)phenyl)ethyl)-2,5-diethylpiperazin-1-yl)-1-methyl-2-oxo-1,2-dihydropyrido[3,2-d]pyrimidine-6-carbonitrile] | 25100 nM | 3170 nM | 13000 nM |  |
| CCC(c1ccc(OCC2CC2)cc1)N1C[C@H](C)N(c2nc(=O)n(C)c3ccc(C#N)nc23)C[C@H]1CC (stereo partly drawn) [Example 309, 4-((2S,5R)-4-(1-(4-(cyclopropylmethoxy)phenyl)propyl)-5-ethyl-2-methylpiperazin-1-yl)-1-methyl-2-oxo-1,2-dihydropyrido[3,2-d]pyrimidine-6-carbonitrile] |  |  |  | IC50 (human DGKζ; [5]): 850 nM; IC50 (human DGKα [2]; [6]): 350 nM; EC50 [3, 7]: 1480 nM |
| CC[C@H]1CN(C(C)c2ccc(CN3CCC(OC)CC3)cc2)[C@H](CC)CN1c1nc(=O)n(C)c2ccc(C#N)nc12 (single isomer, unassigned) [Example 274] | 174000 nM | 16000 nM | 5330 nM |  |
